The text below walks through data of ChEMBL document CHEMBL1201862, “PubChem BioAssay data set” (2004).

Some test systems named below: Malme-3M; NCI-H23; OVCAR-4; SF-268; SNB-19; UO-31; HCT-15; Hs-578T; CAKI-1; PC-3; M14; SR; RXF 393; MDA-MB-231; SK-MEL-2; HT-29; LOX IMVI; KM12; NCI-H460; NCI-H522.
Assay in all cases: NCI tumour cell line growth inhibition, 48 h

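Assay format: 96-well plates, 48-hour exposure. GI50 is the concentration that inhibits growth by half.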 The source made the active and inactive calls. Cut-off read from the data, not from the text of the source: active = GI50 up to about 1.1 µM and inactive = higher.

As to `C[C@@H]1S[C@H](c2c(F)cccc2Cl)n2c1nc1ccccc12`, the GI50 is 14.8 µM (inactive) in the experiment on Malme-3M; 14.5 µM (inactive) with NCI-H23; 18.5 µM (inactive) in the experiment on OVCAR-4; 15.1 µM (inactive) with SF-268; 26.4 µM (inactive) in the experiment on SNB-19; 11.9 µM (inactive) in the experiment on UO-31. In addition, the GI50 was 6.76 µM in the experiment with HCT-15; 20.6 µM (inactive) in the experiment on Hs-578T; 8.43 µM (inactive) with CAKI-1; 6.84 µM (inactive) in the experiment on PC-3; 15.2 µM (inactive) with M14; 7.23 µM (inactive) in the experiment on SR. In addition, the GI50 in the experiment with RXF 393 was 14.5 µM (inactive); in the experiment with MDA-MB-231 it was 11.5 µM (inactive); in the experiment with SK-MEL-2, 15.7 µM (inactive); in the experiment with HT-29, 14.7 µM (inactive); in the experiment on LOX IMVI it was 12.5 µM (inactive); in the experiment on KM12, 5.53 µM (inactive).
`O=S(=O)(NC(c1ccccc1)(c1cc2ccccc2[nH]1)c1cc2ccccc2n1S(=O)(=O)c1ccccc1)c1ccccc1` (stereo not given): the GI50 in the experiment on Malme-3M is 59.2 µM (inactive); in the experiment on NCI-H23, > 100 µM (inactive); in the experiment with OVCAR-4, > 100 µM (inactive); in the experiment on SF-268, > 100 µM (inactive); with SNB-19 it was > 100 µM (inactive); with UO-31, > 100 µM (inactive). The GI50 with HCT-15 was above 100 µM; in the experiment on NCI-H460, > 100 µM (inactive); in the experiment on Hs-578T, > 100 µM (inactive); in the experiment on CAKI-1, > 100 µM (inactive); in the experiment with PC-3, > 100 µM (inactive); in the experiment on M14, 62.2 µM (inactive). The GI50 with SR is > 100 µM (inactive); with MDA-MB-231, > 100 µM (inactive); with SK-MEL-2, 28.9 µM (inactive); in the experiment with HT-29, > 100 µM (inactive); in the experiment with LOX IMVI, > 100 µM (inactive); in the experiment on KM12, > 100 µM (inactive).
Turning to `O=C1c2ccccc2C(=O)N1CCc1nc(-c2ccccc2)c[nH]1`, the GI50 was > 100 µM (inactive) with NCI-H522; 24.8 µM (inactive) in the experiment with Malme-3M; > 100 µM (inactive) with NCI-H23; > 100 µM (inactive) with OVCAR-4; > 100 µM (inactive) in the experiment with SF-268; > 100 µM (inactive) with SNB-19. Moreover, the GI50 in the experiment on UO-31 is > 100 µM (inactive); in the experiment with HCT-15, above 100 µM; in the experiment on NCI-H460 it was > 100 µM (inactive); with Hs-578T, > 100 µM (inactive); in the experiment on CAKI-1 it was > 100 µM (inactive); in the experiment with PC-3, > 100 µM (inactive). For the same compound, the GI50 in the experiment with M14, with SR, in the experiment on MDA-MB-231, in the experiment with SK-MEL-2, in the experiment with HT-29 and in the experiment with KM12 was > 100 µM (inactive) each time.
In the case of `O=C1C(NCCF)=C(Cl)C(=O)c2ncccc21`, the GI50 was 0.402 µM (active) in the experiment on Malme-3M; 0.653 µM (active) in the experiment with NCI-H23; 1.5 µM (inactive) in the experiment with SF-268; 1.39 µM (inactive) in the experiment with SNB-19; 0.461 µM in the experiment on HCT-15; 0.429 µM (active) in the experiment with NCI-H460. For the same compound, the GI50 in the experiment with Hs-578T is 1.77 µM (inactive); in the experiment with PC-3 it was 1.29 µM (inactive); in the experiment on M14, 0.869 µM (active); with SR it was 2.36 µM (inactive); with RXF 393 it was 0.736 µM (active); in the experiment with MDA-MB-231, 2.19 µM (inactive). Also, the GI50 in the experiment on SK-MEL-2 is 0.179 µM (active); in the experiment on HT-29, 2.47 µM (inactive); in the experiment with LOX IMVI it was 0.284 µM (active); in the experiment on KM12, 1.54 µM (inactive).
Regarding `C[N+](C)(C)[BH-](Br)C(O)O` (stereo not given), the GI50 with NCI-H522, with NCI-H23, in the experiment with OVCAR-4, in the experiment on SF-268, in the experiment on SNB-19 and in the experiment on UO-31 was > 100 µM (inactive) in each case. The GI50 with HCT-15 was above 100 µM; with NCI-H460, > 100 µM (inactive); with Hs-578T it was > 100 µM (inactive); in the experiment with CAKI-1, > 100 µM (inactive); in the experiment with PC-3 it was > 100 µM (inactive); with M14, > 100 µM (inactive). For the same compound, the GI50 with SR, in the experiment with RXF 393, in the experiment with MDA-MB-231, in the experiment on SK-MEL-2, in the experiment on HT-29 and in the experiment on LOX IMVI was > 100 µM (inactive) each time. Further, the GI50 in the experiment with KM12 was > 100 µM (inactive).
For the compound `Cc1nn(C(=O)Cc2ccccc2)c2c1C(c1ccccc1[N+](=O)[O-])SC(=N)N2` (stereo not given), the GI50 in the experiment with NCI-H522, in the experiment with Malme-3M, with NCI-H23, in the experiment on SF-268, in the experiment with SNB-19 and in the experiment on UO-31 was > 100 µM (inactive) in each case. For the same compound, the GI50 with HCT-15 was above 100 µM; in the experiment on NCI-H460 it was > 100 µM (inactive); with Hs-578T it was > 100 µM (inactive); in the experiment on CAKI-1, > 100 µM (inactive); in the experiment with PC-3, > 100 µM (inactive); in the experiment on M14, > 100 µM (inactive). Also, the GI50 with SR, in the experiment on MDA-MB-231, with HT-29, with LOX IMVI and in the experiment on KM12 was > 100 µM (inactive) each time.
In the case of `CN1CCN(c2ccc3nc(C4=C(O)C(=O)c5c(nc(CO)n5C)C4=O)[nH]c3n2)CC1`, the GI50 in the experiment with NCI-H522, in the experiment on Malme-3M, in the experiment with NCI-H23, in the experiment with OVCAR-4, with SF-268 and in the experiment on SNB-19 was > 100 µM (inactive) in each case. Further, the GI50 is > 100 µM (inactive) in the experiment on UO-31; above 100 µM in the experiment on HCT-15; > 100 µM (inactive) in the experiment on NCI-H460; > 100 µM (inactive) in the experiment with Hs-578T; > 100 µM (inactive) in the experiment on CAKI-1; > 100 µM (inactive) with PC-3. In addition, the GI50 in the experiment on M14 is > 100 µM (inactive); with RXF 393, 15.8 µM (inactive); in the experiment on MDA-MB-231, > 100 µM (inactive); in the experiment with SK-MEL-2, 55.1 µM (inactive); in the experiment on HT-29, > 100 µM (inactive); in the experiment with LOX IMVI, > 100 µM (inactive). The GI50 in the experiment on KM12 was > 100 µM (inactive).
On to `COc1ccc(/C=C2\OC(=O)C(Cl)=C2c2ccc(OC)cc2)cc1`, for which the GI50 in the experiment with NCI-H522 is 66.2 µM (inactive); in the experiment on Malme-3M, > 100 µM (inactive); in the experiment with OVCAR-4, 86.9 µM (inactive); in the experiment with SF-268 it was 40.4 µM (inactive); with SNB-19, > 100 µM (inactive); in the experiment with UO-31 it was > 100 µM (inactive). In addition, the GI50 in the experiment on HCT-15 is above 100 µM; in the experiment on NCI-H460, > 100 µM (inactive); with Hs-578T, > 100 µM (inactive); in the experiment on CAKI-1, > 100 µM (inactive); in the experiment on PC-3, 63 µM (inactive); in the experiment with M14, > 100 µM (inactive). Also, the GI50 in the experiment on SR, with MDA-MB-231, with SK-MEL-2, in the experiment with HT-29, with LOX IMVI and in the experiment with KM12 was > 100 µM (inactive) in each case.
For `NS(=O)(=O)c1ccc(NC(=O)c2cc([N+](=O)[O-])cc([N+](=O)[O-])c2)cc1`, the GI50 with Malme-3M is 24.8 µM (inactive); in the experiment on NCI-H23, 41.4 µM (inactive); with OVCAR-4 it was 27.7 µM (inactive); with SF-268, 32.4 µM (inactive); with SNB-19, 45.9 µM (inactive); in the experiment with UO-31, 65.6 µM (inactive). The GI50 in the experiment on HCT-15 was 44.3 µM; with NCI-H460, 31.8 µM (inactive); in the experiment on Hs-578T, 76.4 µM (inactive); in the experiment with CAKI-1 it was > 100 µM (inactive); in the experiment with PC-3, 21.1 µM (inactive); in the experiment with M14, 47.8 µM (inactive). In addition, the GI50 was 63.1 µM (inactive) in the experiment with SR; > 100 µM (inactive) with RXF 393; 39.4 µM (inactive) in the experiment on MDA-MB-231; 34.1 µM (inactive) in the experiment on SK-MEL-2; 43.1 µM (inactive) with HT-29; 22.8 µM (inactive) in the experiment with LOX IMVI. Further, the GI50 with KM12 was 40.4 µM (inactive).
As to `CC(=O)N(C)CCc1c[nH]c2ccccc12`, the GI50 in the experiment with NCI-H522, in the experiment with Malme-3M, in the experiment with NCI-H23, in the experiment with OVCAR-4, in the experiment with SF-268 and with SNB-19 was > 100 µM (inactive) in each case. In addition, the GI50 was > 100 µM (inactive) with UO-31; above 100 µM in the experiment on HCT-15; > 100 µM (inactive) in the experiment on NCI-H460; > 100 µM (inactive) in the experiment with Hs-578T; > 100 µM (inactive) in the experiment on CAKI-1; > 100 µM (inactive) with PC-3. Also, the GI50 in the experiment on M14, in the experiment with SR, with MDA-MB-231, in the experiment on SK-MEL-2, with HT-29 and in the experiment on LOX IMVI was > 100 µM (inactive) each time. The GI50 with KM12 was > 100 µM (inactive).
With `CCCSC1=N/C(=C\c2ccco2)C(=O)N1`, the GI50 in the experiment on NCI-H522, with Malme-3M, in the experiment with NCI-H23, in the experiment on OVCAR-4, in the experiment with SF-268 and in the experiment with SNB-19 was > 100 µM (inactive) each time. The GI50 was > 100 µM (inactive) in the experiment with UO-31; above 100 µM in the experiment on HCT-15; > 100 µM (inactive) with NCI-H460; > 100 µM (inactive) in the experiment with Hs-578T; > 100 µM (inactive) with CAKI-1; > 100 µM (inactive) with PC-3. Besides, the GI50 in the experiment with M14, in the experiment with RXF 393, with MDA-MB-231, with SK-MEL-2, in the experiment with HT-29 and in the experiment on LOX IMVI was > 100 µM (inactive) each time. Also, the GI50 with KM12 was > 100 µM (inactive).
